# Measured values: US12508237B2, “Pharmaceutical composition comprising 4-hexylresorcinol as active ingredient for prevention or treatment of bone disease” (KYUNGPOOK NATIONAL UNIVERSITY INDUSTRY-ACADEMIC COOPERATION …, priority 2019, dated 2025)
# Columns and labels:
# osteoclasts [1] = test: osteoclastic activity by Pit assay on bone slices; format: cell-based, mouse; conditions: differentiated osteoclasts on bone slices, treated with 4-HR for 2 days
# Experimental: Monocytes were sterilized and inoculated on bone slices placed on a 96-well plate, followed by culture for 3 days in the presence of RANKL (30 ng/ml) and M-CSF (30 ng/ml). After 3 days, the differentiated osteoclasts were treated with 4-hexylresorcinol (4-HR), and a culture was performed for 2 days. After 2 days of culture, osteoclasts were removed and bone slices were reacted with horseradish peroxidase-wheat germ agglutinin (Sigma-Aldrich) and then stained with 3,3′-diaminobenzidine (Sigma-Aldrich). Stained cells were analyzed according to the manufacturer's method using a Java-based image analysis program (ImageJ).
# To evaluate the effect of 4-hexylresorcinol (4-HR) on the differentiation and activity of osteoclasts, 4-hexylresorcinol (4-HR) was treated on osteoclasts, and cell differentiation and osteoclastic activity were checked by TRAP staining and PIT assay analysis.
# osteoblasts (MC3T3-E1) = test: osteoblast differentiation by alkaline phosphatase (ALP) and Alizarin red staining; format: cell-based, mouse; conditions: MC3T3-E1 cells, 4-HR 10^−9 M to 10^−6 M (ALP, 7 days) or 10^−9 M to 10^−4 M (Alizarin red, 14-21 days)
# Experimental: MC3T3-E1 (mouse calvaria osteoblast cell line) cells were cultured in α-MEM containing 10% (v/v) FBS, penicillin (100 units/ml), and streptomycin (100 units/ml) using a constant temperature and humidity incubator in the presence of 5% (v/v) CO2 at 37° C. When the culture dish was filled with osteoblasts with 100% confluency, 50 μg/ml of ascorbic acid and 10 mM of β-glycerophosphate were treated to induce cell differentiation. During cell differentiation, the differentiation medium was replaced every 3 days.
# MC3T3-E1 and bone marrow stem cells were inoculated into a 48-well multi-plate at 5×10^4 cells/well, and culture was performed for 7 days with treatment of 4-hexylresorcinol (4-HR) at a concentration of 10^−9 M to 10^−6 M while a differentiation induction medium was replaced every 2 days. After the culture, cells were washed with PBS three times, and a fixative containing 5 ml of citrate acid, 13 ml of acetone, and 1.6 ml of a formaldehyde solution was treated for 45 seconds. Then, the cells were washed twice with PBS, treated with an alkaline-dye mixture, and reacted at room temperature in the darkness for 30 minutes. After removing the solution, cells were washed several times with PBS and observed under a microscope. […]
# osteoclasts [2] = test: osteoclast differentiation by TRAP staining; format: cell-based; set-up: dose or concentration left out as unconfirmed; conditions: mouse bone marrow cells with M-CSF and RANKL, 4 days, 4-HR
# Experimental: Mouse bone marrow monocyte (BMM) cells were isolated from the femur and tibia in 8-week-old mice. Muscle was removed after the separation of the femur and tibia from the mice euthanized by cervical dislocation, both ends were cut out, and α-MEM was filtered with a syringe to separate bone marrow cells. After centrifuging the isolated bone marrow cells, red blood cell lysis solution was added to hemolyze red blood cells, and then culture was performed for a day in the α-MEM containing 10% (v/v) FBS, penicillin (100 units/ml), and streptomycin (100 units/ml) using the constant temperature and humidity incubator in the presence of 5% (v/v) CO2 at 37° C. Only suspending cells not adhering to the culture dish were collected, treated with 20 ng/ml of M-CSF, and cultured for 3 days to obtain bone marrow-derived monocyte/macrophage. In an attempt to differentiate macrophages into osteoclasts, 20 ng/ml of M-CSF and 30 ng/ml of RANKL were treated, followed by culture for 4 days. Media were replaced every 2 days while differentiation was induced.
# Medullary mononuclear cells isolated from the femur and tibia of mice were treated with 20 ng/ml of M-CSF and reacted for a day. […]
# [3] = tested on: animal model with osteoporosis; test: blood biochemical analysis of bone resorption and bone formation markers (CTX, ALP, RANKL) in animal model with osteoporosis; format: in vivo, mouse; conditions: 4-HR periodically applied to the skin
# Experimental: To evaluate the effect of 4-hexylresorcinol (4-HR) on bone resorption and promoting bone formation, the levels of CTX, ALP, and RANKL in an animal model with osteoporosis were measured via blood biochemical analysis. CTX is used as a marker for evaluating the degree of bone resorption (bone destruction) in the blood, ALP is a marker that indicates the degree of bone formation secreted by osteoblasts, and RANKL is used as a marker that is secreted from osteoblasts and promotes differentiation of osteoclasts.
# [4] = tested on: osteoporosis (OVX) induced mice; test: micro-CT analysis of femur bone in ovariectomy (OVX) osteoporosis mouse model after 4-HR ointment application; format: in vivo; conditions: ointment containing 2% 4-HR applied to dorsal skin for 4 weeks, compared to osteoporosis (OVX) induced mice
# Experimental: After separating the mouse femur and removing muscle, fixation was performed using 4% PFA at 4° C. for a day. The next day, washing was followed three times with PBS solution to be stored in PBS. The femur stored thereby was analyzed with a Skysan 1272 (Bruker, Massachusetts, USA) model by scanning, in units of 6 μm, the section from 1.6 mm to 2.3 mm below the growth plate. Using micro-CT, during the measurement of trabecular bone volume/tissue volume (BV/TV), trabecular thickness (Tb.Th), trabecular number (Tb.N), trabecular separation (Tb.Sp), and trabecular bone mineral density (BMD), bone volume/tissue volume (BV/TV) and bone mineral density (BMD) of cortical bone was measured as well.
# To evaluate the effect of 4-hexylresorcinol (4-HR) on bone remodeling, the ointment containing 2% 4-HR was applied to the mouse dorsal skin for 4 weeks after induction of osteoporosis via ovariectomy (OVX) in a model with osteoporosis, and the change in bone volume was analyzed by micro-CT.
compound,measurement,setting,value
"CCCCCCc1ccc(O)cc1O [4-hexylresorcinol (4-HR), 4-hexylbenzene-1,3-diol]",osteoclastic activity (PIT assay),osteoclasts [1],inhibited
same,differentiation of osteoblasts (ALP and Alizarin red staining),osteoblasts (MC3T3-E1),differentiation was promoted
same,differentiation of osteoclasts (TRAP staining),osteoclasts [2],inhibited
same,level of ALP (bone formation marker in blood),[3],increased
same,level of CTX (bone resorption marker in blood),[3],decreased
same,bone density,[4],increased
same,bone volume,[4],increased
same,trabecular number,[4],increased
same,trabecular thickness,[4],increased
